The values below come from the OligoGym collection.

Where “and” joins values, the source holds several entries; their conditions need not be identical. Equal values may be shown once. HELM strings list units from the 5' end as sugar, base in round brackets, then linkage (d deoxyribose, r ribose, m 2'-O-methyl, p phosphodiester). Strings are as the collection lists them, not checked against the first reports. ss, as = sense and antisense strand; [lna] = locked nucleic acid (LNA); [una] = unlocked nucleic acid; [hna] = hexitol nucleic acid; [fl2r] = 2'-fluoro
Note: test system not given here.

The conditions of the data set: siRNA.
Substance “RNA1{r(C)p.r(C)p.r(C)p.r(U)p.r(C)p.r(C)p.r(C)p.r(C)p.[fl2r](U)p.r(G)p.r(U)p.r(C)p.r(C)p.r(C)p.r(C)p.r(G)p.[fl2r](C)p.r(U)p.r(U)p.r(T)p.r(T)}|RNA2{r(A)p.r(A)p.r(G)p.r(C)p.r(G)p.r(G)p.r(G)p.r(G)p.r(A)p.[fl2r](C)p.r(A)p.r(G)p.r(G)p.r(G)p.r(G)p.r(A)p.r(G)p.r(G)p.r(G)p.r(T)p.r(T)}$$$RNA1{StrandType:ss}|RNA2{StrandType:as}$” registered a target mRNA knockdown of 72%. “RNA1{r(G)p.r(A)p.r(C)p.r(G)p.r(U)p.r(A)p.r(A)p.r(A)p.r(C)p.r(G)p.r(G)p.r(C)p.r(C)p.r(A)p.r(C)p.r(A)p.r(A)p.r(G)p.[hna](U)p.[hna](U)p.r(C)}|RNA2{r(A)p.r(C)p.r(U)p.r(U)p.r(G)p.r(U)p.r(G)p.r(G)p.r(C)p.r(C)p.r(G)p.r(U)p.r(U)p.r(U)p.r(A)p.r(C)p.r(G)p.r(U)p.r(C)p.r(G)p.r(C)}$$$RNA1{StrandType:ss}|RNA2{StrandType:as}$”: the target mRNA knockdown amounted to 88.7%. Consider “RNA1{r(G)p.r(G)p.r(A)p.r(C)p.r(A)p.r(U)p.r(U)p.r(C)p.r(A)p.r(G)p.r(A)p.r(A)p.r(C)p.r(A)p.r(A)p.r(G)p.r(A)p.r(A)p.r(A)p.[una](U)p.[una](U)}|RNA2{r(U)p.[una](U)p.r(U)p.r(C)p.r(U)p.r(U)p.r(G)p.r(U)p.r(U)p.r(C)p.r(U)p.r(G)p.r(A)p.r(A)p.r(U)p.r(G)p.r(U)p.r(C)p.r(C)p.[una](U)p.[una](U)}$$$RNA1{StrandType:ss}|RNA2{StrandType:as}$”, for which the target mRNA knockdown amounted to 36%. Take “RNA1{r(U)p.r(U)p.r(C)p.[fl2r](U)p.r(A)p.r(A)p.r(C)p.r(C)p.r(G)p.r(G)p.r(G)p.[fl2r](C)p.r(A)p.r(G)p.r(C)p.r(U)p.r(U)p.r(C)p.r(U)p.r(T)p.r(T)}|RNA2{r(A)p.r(G)p.r(A)p.r(A)p.r(G)p.r(C)p.[fl2r](U)p.r(G)p.r(C)p.r(C)p.r(C)p.r(G)p.r(G)p.r(U)p.[fl2r](U)p.r(A)p.r(G)p.r(A)p.r(A)p.r(T)p.r(T)}$$$RNA1{StrandType:ss}|RNA2{StrandType:as}$”: the target mRNA knockdown amounted to 71%. The same measure for “RNA1{m(A)p.m(A)p.r(C)p.r(C)p.r(C)p.m(A)p.r(C)p.r(C)p.m(A)p.r(C)p.m(A)p.r(G)p.r(C)p.r(U)p.m(A)p.r(G)p.m(A)p.m(A)p.r(C)p.m(U)p.m(U)}|RNA2{r(A)p.r(A)p.r(G)p.r(U)p.r(U)p.r(C)p.r(U)p.r(A)p.r(G)p.r(C)p.r(U)p.r(G)p.r(U)p.r(G)p.r(G)p.r(U)p.r(G)p.r(G)p.r(G)p.r(U)p.r(U)}$$$RNA1{StrandType:ss}|RNA2{StrandType:as}$”: 42%; for “RNA1{r(G)p.r(A)p.r(A)p.r(G)p.r(A)p.r(G)p.r(U)p.m(U)p.r(A)p.r(A)p.r(C)p.r(C)p.r(C)p.m(G)p.r(G)p.r(G)p.m(A)p.r(C)p.r(U)p.r(T)p.r(T)}|RNA2{r(A)p.r(G)p.r(U)p.r(C)p.r(C)p.r(C)p.r(G)p.r(G)p.r(G)p.r(U)p.m(U)p.r(A)p.r(A)p.r(C)p.r(U)p.r(C)p.r(U)p.r(U)p.r(C)p.r(T)p.r(T)}$$$RNA1{StrandType:ss}|RNA2{StrandType:as}$”: 47%. The substance “RNA1{r(C)p.r(C)p.r(G)p.r(A)p.r(A)p.r(G)p.r(A)p.r(C)p.r(G)p.r(A)p.r(A)p.r(G)p.r(C)p.m(U)p.r(A)p.r(U)p.r(G)p.r(A)p.r(A)p.r(T)p.r(T)}|RNA2{r(U)p.r(U)p.m(C)p.r(A)p.r(U)p.r(A)p.r(G)p.r(C)p.r(U)p.r(U)p.r(C)p.r(G)p.r(U)p.r(C)p.r(U)p.r(U)p.r(C)p.r(G)p.r(G)p.r(T)p.r(T)}$$$RNA1{StrandType:ss}|RNA2{StrandType:as}$” yielded a target mRNA knockdown of 71%.

Consider “RNA1{r(G)p.r(G)p.r(C)p.r(U)p.[fl2r](U)p.r(A)p.r(G)p.r(U)p.[fl2r](C)p.r(A)p.r(C)p.r(U)p.r(C)p.r(C)p.r(U)p.r(C)p.r(U)p.r(U)p.r(C)p.r(T)p.r(T)}|RNA2{r(G)p.r(A)p.r(A)p.r(G)p.r(A)p.r(G)p.r(G)p.r(A)p.r(G)p.[fl2r](U)p.r(G)p.r(A)p.r(C)p.[fl2r](U)p.r(A)p.r(A)p.r(G)p.r(C)p.r(C)p.r(T)p.r(T)}$$$RNA1{StrandType:ss}|RNA2{StrandType:as}$”, for which the target mRNA knockdown was found to be 68%. On to “RNA1{m(U)p.r(C)p.m(C)p.r(U)p.m(C)p.r(G)p.m(U)p.r(C)p.m(G)p.r(U)p.m(C)p.r(U)p.m(G)p.r(U)p.m(U)p.r(C)p.m(U)p.r(A)p.m(A)p.r(T)p.r(T)}|RNA2{r(U)p.r(U)p.m(A)p.r(G)p.m(A)p.r(A)p.r(C)p.r(A)p.r(G)p.r(A)p.r(C)p.r(G)p.r(A)p.r(C)p.r(G)p.r(A)p.m(G)p.r(G)p.m(A)p.r(T)p.r(T)}$$$RNA1{StrandType:ss}|RNA2{StrandType:as}$”, for which the target mRNA knockdown was determined as 63%. The substance “RNA1{m(C)p.r(A)p.r(G)p.m(C)p.r(A)p.r(A)p.r(A)p.m(C)p.m(C)p.r(A)p.m(C)p.r(G)p.r(A)p.m(U)p.m(C)p.r(A)p.r(A)p.m(U)p.r(A)p.r(T)p.r(T)}|RNA2{m(U)p.r(A)p.m(U)p.m(U)p.r(G)p.r(A)p.m(U)p.m(C)p.r(G)p.m(U)p.r(G)p.r(G)p.m(U)p.m(U)p.m(U)p.r(G)p.m(C)p.m(U)p.r(G)p.r(T)p.r(T)}$$$RNA1{StrandType:ss}|RNA2{StrandType:as}$” gave a target mRNA knockdown of 5%. As to “RNA1{r(A)p.r(A)p.r(A)p.r(C)p.r(C)p.r(C)p.r(C)p.r(U)p.r(A)p.r(G)p.r(A)p.r(G)p.r(G)p.r(G)p.r(C)p.r(A)p.r(A)p.r(G)p.r(U)p.r(T)p.r(T)}|RNA2{[fl2r](A)p.r(C)p.[fl2r](U)p.r(U)p.[fl2r](G)p.r(C)p.[fl2r](C)p.r(C)p.[fl2r](U)p.r(C)p.[fl2r](U)p.r(A)p.[fl2r](G)p.r(G)p.[fl2r](G)p.r(G)p.[fl2r](U)p.r(U)p.[fl2r](U)p.r(T)p.r(T)}$$$RNA1{StrandType:ss}|RNA2{StrandType:as}$”, the target mRNA knockdown amounted to 37%.

Substance “RNA1{r(U)p.m(U)p.r(G)p.r(G)p.r(G)p.r(G)p.r(A)p.r(A)p.r(G)p.r(C)p.r(G)p.r(G)p.r(C)p.r(C)p.r(G)p.r(G)p.r(C)p.r(G)p.r(G)p.r(T)p.r(T)}|RNA2{r(C)p.r(C)p.r(G)p.r(C)p.r(C)p.r(G)p.r(G)p.r(C)p.r(C)p.r(G)p.r(C)p.r(U)p.r(U)p.r(C)p.r(C)p.r(C)p.m(C)p.r(A)p.r(A)p.r(T)p.r(T)}$$$RNA1{StrandType:ss}|RNA2{StrandType:as}$” yielded a target mRNA knockdown of 82%.

The substance “RNA1{m(C)p.r(A)p.r(G)p.r(A)p.r(G)p.m(C)p.r(A)p.r(A)p.m(U)p.m(U)p.r(G)p.m(U)p.m(U)p.m(U)p.r(A)p.m(C)p.m(C)p.m(U)p.r(A)p.r(T)p.r(T)}|RNA2{m(U)p.r(A)p.r(G)p.r(G)p.m(U)p.r(A)p.r(A)p.r(A)p.m(C)p.r(A)p.r(A)p.m(U)p.m(U)p.r(G)p.m(C)p.m(U)p.m(C)p.r(U)p.r(G)p.r(T)p.r(T)}$$$RNA1{StrandType:ss}|RNA2{StrandType:as}$” returned a target mRNA knockdown of 75%. “RNA1{r(G)p.r(U)p.r(A)p.r(U)p.r(G)p.r(A)p.r(C)p.r(C)p.r(G)p.r(A)p.r(C)p.r(U)p.r(A)p.r(C)p.r(G)p.r(C)p.r(G)p.r(U)p.r(A)p.r(T)p.r(T)}|RNA2{r(U)p.r(U)p.r(C)p.r(A)p.r(G)p.r(U)p.r(G)p.r(U)p.r(G)p.r(A)p.r(U)p.[una](G)p.r(A)p.r(C)p.r(A)p.r(C)p.r(U)p.r(U)p.r(G)p.r(T)p.r(T)}$$$RNA1{StrandType:ss}|RNA2{StrandType:as}$”: the target mRNA knockdown stood at 59%. The substance “RNA1{[hna](G)p.[hna](A)p.[hna](C)p.r(G)p.r(U)p.r(A)p.r(A)p.r(A)p.r(C)p.r(G)p.r(G)p.r(C)p.r(C)p.r(A)p.r(C)p.r(A)p.r(A)p.[hna](G)p.[hna](U)p.[hna](U)p.d(T)}|RNA2{r(A)p.r(C)p.r(U)p.r(U)p.r(G)p.r(U)p.r(G)p.r(G)p.r(C)p.r(C)p.r(G)p.r(U)p.r(U)p.r(U)p.r(A)p.r(C)p.r(G)p.r(U)p.r(C)p.r(G)p.r(C)}$$$RNA1{StrandType:ss}|RNA2{StrandType:as}$” yielded a target mRNA knockdown of 89%.

On to “RNA1{r(C)p.r(U)p.r(U)p.r(A)p.r(C)p.r(G)p.r(C)p.r(U)p.r(G)p.r(A)p.r(G)p.r(U)p.r(A)p.r(C)p.r(U)p.r(U)p.r(C)p.r(G)p.r(A)p.r(T)p.r(T)}|RNA2{r(T)p.r(C)p.r(G)p.r(A)p.r(A)p.r(G)p.r(U)p.r(A)p.r(C)p.r(U)p.r(C)p.r(A)p.r(G)p.r(C)p.r(G)p.r(U)p.r(A)p.[lna](A)p.r(G)p.[lna](T)p.[lna](T)}$$$RNA1{StrandType:ss}|RNA2{StrandType:as}$”, for which the target mRNA knockdown worked out at 95%. Consider “RNA1{r(C)p.r(U)p.r(U)p.r(A)p.r(C)p.r(G)p.r(C)p.r(U)p.r(C)p.r(U)p.r(G)p.r(U)p.r(A)p.r(C)p.r(U)p.r(U)p.r(C)p.r(G)p.r(A)p.d(T)p.d(T)}|RNA2{r(U)p.r(C)p.r(G)p.r(A)p.r(A)p.r(G)p.r(U)p.r(A)p.r(C)p.r(U)p.r(C)p.r(A)p.r(G)p.r(C)p.r(G)p.r(U)p.r(A)p.r(A)p.r(G)p.d(T)p.d(T)}$$$RNA1{StrandType:ss}|RNA2{StrandType:as}$”, for which the target mRNA knockdown is 92% and 94%. In turn, “RNA1{m(A)p.m(A)p.m(G)p.m(G)p.m(A)p.m(G)p.m(A)p.m(U)p.m(C)p.m(A)p.m(A)p.m(C)p.m(A)p.m(U)p.m(U)p.m(U)p.m(U)p.m(C)p.m(A)p.r(T)p.r(T)}|RNA2{m(U)p.r(G)p.r(A)p.r(A)p.r(A)p.r(A)p.m(U)p.r(G)p.r(U)p.r(U)p.r(G)p.r(A)p.m(U)p.m(C)p.m(U)p.m(C)p.m(C)p.m(U)p.m(U)p.r(T)p.r(T)}$$$RNA1{StrandType:ss}|RNA2{StrandType:as}$” showed a target mRNA knockdown of 29%.

Substance “RNA1{r(C)p.r(U)p.r(U)p.r(A)p.r(C)p.r(G)p.r(C)p.r(U)p.r(G)p.r(A)p.r(G)p.r(U)p.r(A)p.r(C)p.r(U)p.r(U)p.r(C)p.r(G)p.r(A)p.r(T)p.r(T)}|RNA2{r(U)p.r(C)p.r(G)p.r(A)p.r(A)p.r(G)p.r(U)p.r(A)p.r(C)p.r(U)p.r(C)p.r(A)p.r(G)p.r(C)p.r(G)p.r(U)p.[lna](A)p.r(A)p.r(G)p.r(T)p.r(T)}$$$RNA1{StrandType:ss}|RNA2{StrandType:as}$” registered a target mRNA knockdown of 93%. “RNA1{m(G)p.r(G)p.m(A)p.r(G)p.m(C)p.r(U)p.m(A)p.r(G)p.m(A)p.r(C)p.m(G)p.r(G)p.m(G)p.r(U)p.m(A)p.r(C)p.m(G)p.r(A)p.r(G)p.r(T)p.r(T)}|RNA2{r(C)p.r(U)p.r(C)p.r(G)p.r(U)p.r(A)p.r(C)p.r(C)p.r(C)p.r(G)p.r(U)p.r(C)p.r(U)p.r(A)p.r(G)p.r(C)p.r(U)p.r(C)p.r(C)p.r(T)p.r(T)}$$$RNA1{StrandType:ss}|RNA2{StrandType:as}$” returned a target mRNA knockdown of 75%.
